Results on one compound are retold here after patent publication US7144880B2, “Compositions relating to novel compounds and targets thereof” (Regents of the University of Michigan, priority 2003, dated 2006).

Each structure is given as a SMILES string.

Assay in all cases: Antiproliferation, 72 h, media with 10% FBS
Common to all, as to assay type: cell-based

The test system of assay [1] is malignant B cell line CA46. Conditions: CA46, 72 h, read-out: ED50 (μM) for antiproliferation. The method, then: (§1) Like most 1,4-benzodiazepines, Bz-423 binds strongly to bovine serum albumin (BSA), which reduces the effective concentration of drug free in solution. For example, in tissue culture media containing 10% (v/v) fetal bovine serum (FBS), ca. 99% of the drug is bound to BSA. Therefore, cell culture cytotoxicity assays are conducted in media with 2% FBS to reduce binding to BSA and increase the free [Bz-423]. Under these conditions, the dose response-curve is quite sharp such that there is a limited concentration range at which Bz-423 is only partly effective. Since some benzodiazepines are known to have anti-proliferative properties, the effect of Bz-423 at concentrations <ED50 were carefully analyzed and observed that in addition to inducing apoptosis, Bz-423 prevented cell growth after 3 d in culture. In these low serum conditions, the cytotoxic and anti-proliferative effects overlapped making it difficult to study each effect independently. […] While higher amounts of drug may also block proliferation, it caused apoptosis well before the effects on proliferation could be observed.
(§2) To confirm the decrease in cell number relative to control cells after 3 d of treatment is due to decreased proliferation and not cell death balanced by proliferation, in addition to cell counting, cell divisions were studied. PKH-67 is a fluorescent probe that binds irreversibly to cell membranes and upon cell division is partitioned equally between the daughter cells, making it possible to quantify cell division by flow cytometry. Ramos cells stained with PKH67 and treated with Bz-423 had fewer cell divisions at sub-cytotoxic concentrations which confirmed that the decrease in cell number was due to anti-proliferative affects and not cell death. To determine if Bz-423 induced anti-proliferation was specific to Ramos cells, cell counting and cell cycle experiments were done in other B cell lines and cell lines derived from solid tumors.

The subject of assay [2] is malignant B cell line Raji. Conditions: read-out: ED50 (μM) for antiproliferation. The method, then:
as §1, §2

In assay [3] the test system is neuroblastoma cell line IMR-32. As to conditions: IMR-32, 72 h, read-out: ED50 (μM) for antiproliferation. As for the experimental part: as §1, §2
Assay [4] deals with neuroblastoma cell line Lan-1. As to conditions: Lan-1, 72 h, read-out: ED50 (μM) for antiproliferation. The method, then: as §1, §2
The test system of assay [5] is neuroblastoma cell line SHEP-1. As to conditions: SHEP-1, 72 h, read-out: ED50 (μM) for antiproliferation. The method, then: as §1, §2
The test system of assay [6] is ovarian cells with null p53 (SKOV3). As to conditions: SKOV3, 72 h, read-out: ED50 (μM) for antiproliferation. As for the experimental part:
as §1, §2

In the case of `CN1C(=O)C(Cc2ccc3ccccc3c2)N=C(c2ccc(O)cc2)c2cc(Cl)ccc21` (stereo not drawn) [Bz-423], the EC50 in assay [1] came to 13.4 µM; in assay [2] it was 12.9 µM; in assay [3], 18 µM; in assay [4], 13.7 µM; in assay [5], 15.9 µM; in assay [6] it was 18.2 µM.
